Assay results: ChEMBL document CHEMBL4024756, “Identification of 4-Phenoxyquinoline Based Inhibitors for L1196M Mutant of Anaplastic Lymphoma Kinase by Structure-Based Design” (J Med Chem, 2017)

Legend:
[1] = Half life in rat at 1 mg/kg, iv; type: ADME, organism-based; details: in vivo
[2] = Tmax in rat at 1 mg/kg, iv; type: ADME, organism-based; details: in vivo
[3] = Tmax in rat at 10 mg/kg, po; type: ADME, organism-based; details: in vivo
[4] = Cmax in rat at 1 mg/kg, iv; type: ADME, organism-based; parameters: dose 1 mg/kg, route intravenous; details: in vivo
[5] = Cmax in rat at 10 mg/kg, po; type: ADME, organism-based; parameters: dose 10 mg/kg, route oral; details: in vivo
[6] = AUClast in rat at 1 mg/kg, iv; type: ADME, organism-based; parameters: dose 1 mg/kg, time 0 - last, route intravenous; details: in vivo
[7] = AUClast in rat at 10 mg/kg, po; type: ADME, organism-based; parameters: dose 10 mg/kg, time 0 - last, route oral; details: in vivo
[8] = Oral bioavailability in rat at 10 mg/kg; type: ADME, organism-based; details: in vivo
[9] = target: Voltage-gated inwardly rectifying potassium channel KCNH2 (Homo sapiens, UniProt Q12809); assay: Inhibition of human ERG by fluorescently labeled tracer binding method
Voltage-gated inwardly rectifying potassium channel KCNH2, sequence (Q12809 whole entry): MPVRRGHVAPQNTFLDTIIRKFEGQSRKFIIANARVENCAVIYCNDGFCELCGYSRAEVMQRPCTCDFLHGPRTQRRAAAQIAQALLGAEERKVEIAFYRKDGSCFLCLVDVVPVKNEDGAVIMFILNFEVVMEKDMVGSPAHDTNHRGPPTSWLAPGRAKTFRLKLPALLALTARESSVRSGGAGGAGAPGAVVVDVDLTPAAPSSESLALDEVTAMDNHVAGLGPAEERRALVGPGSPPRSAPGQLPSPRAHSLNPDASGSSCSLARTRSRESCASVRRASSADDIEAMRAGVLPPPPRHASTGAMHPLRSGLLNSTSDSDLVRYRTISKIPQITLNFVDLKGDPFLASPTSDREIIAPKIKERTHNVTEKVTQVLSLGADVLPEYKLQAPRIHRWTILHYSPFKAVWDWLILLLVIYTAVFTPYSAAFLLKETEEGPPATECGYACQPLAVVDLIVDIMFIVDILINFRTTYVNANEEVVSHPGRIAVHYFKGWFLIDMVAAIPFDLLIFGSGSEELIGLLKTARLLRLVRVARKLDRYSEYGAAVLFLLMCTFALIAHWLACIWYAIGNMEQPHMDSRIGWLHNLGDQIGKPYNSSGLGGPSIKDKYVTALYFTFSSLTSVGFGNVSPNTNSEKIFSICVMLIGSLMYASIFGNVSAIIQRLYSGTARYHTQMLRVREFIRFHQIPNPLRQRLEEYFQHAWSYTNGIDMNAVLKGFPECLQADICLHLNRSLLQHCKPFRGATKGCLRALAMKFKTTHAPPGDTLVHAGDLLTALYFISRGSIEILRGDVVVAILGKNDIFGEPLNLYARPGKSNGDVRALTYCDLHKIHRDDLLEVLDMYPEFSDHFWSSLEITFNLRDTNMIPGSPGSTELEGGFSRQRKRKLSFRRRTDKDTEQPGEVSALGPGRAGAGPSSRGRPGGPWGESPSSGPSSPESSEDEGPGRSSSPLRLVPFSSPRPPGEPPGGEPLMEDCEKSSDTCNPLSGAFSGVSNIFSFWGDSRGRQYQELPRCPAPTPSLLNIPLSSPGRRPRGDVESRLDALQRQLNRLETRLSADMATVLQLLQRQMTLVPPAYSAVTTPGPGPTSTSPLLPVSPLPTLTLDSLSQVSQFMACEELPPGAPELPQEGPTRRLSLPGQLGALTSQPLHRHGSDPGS

[10] = tested on: NCI-H2228; assay: Antiproliferative activity against human NCI-H2228 cells after 72 hrs by MTT assay; details: NCI-H2228, 72 h
[11] = Antiproliferative activity against human H2228/CR cells after 72 hrs by MTT assay; details: NCI-H2228, 72 h

With `Oc1ccc(Oc2ccnc3cc(-c4cnn(C5CCNCC5)c4)ccc23)cc1` as the compound, how does the half-life [1] read?
Its half-life is 3.5 h.

And the Tmax [2]?
The Tmax was 6 min.

What about the Tmax [3] of the same compound?
The Tmax was 6 h.

What about the Cmax [4] of the same compound?
Its Cmax is 83.5 ng/mL.

What about the Cmax [5] of the same compound?
Its Cmax is 78.4 ng/mL.

What about the AUC(0-t) [6] of the same compound?
Its AUC(0-t) is 155 ng·h/mL.

What about the AUC(0-t) [7] of the same compound?
The AUC(0-t) was 384 ng·h/mL.

What about the bioavailability [8] of the same compound?
Its bioavailability is 24.8%.

With `COc1ccc(Oc2ccnc3cc(-c4cnn(C5CCNCC5)c4)ccc23)cc1` as the compound, how does the half-life [1] read?
Its half-life is 10.7 h.

What about the Tmax [2] of the same compound?
Its Tmax is 6 min.

What about the Tmax [3] of the same compound?
Its Tmax is 4 h.

What about the Cmax [4] of the same compound?
Its Cmax is 48.9 ng/mL.

And the Cmax [5]?
Its Cmax is 83.9 ng/mL.

What about the AUC(0-t) [6] of the same compound?
Its AUC(0-t) is 95.9 ng·h/mL.

And the AUC(0-t) [7]?
Its AUC(0-t) is 437 ng·h/mL.

What about the bioavailability [8] of the same compound?
Its bioavailability is 45.5%.

What about the IC50 [9] of the same compound?
Its IC50 is 2460 nM.

Which half-life [1] does the source give for `Cc1ccc(Oc2ccnc3cc(-c4cnn(C5CCNCC5)c4)ccc23)cc1` here?
Its half-life is 3.3 h.

And the Tmax [2]?
Its Tmax is 6 min.

And the Tmax [3]?
Its Tmax is 4 h.

And the Cmax [4]?
Its Cmax is 94.1 ng/mL.

And the Cmax [5]?
The Cmax was 131 ng/mL.

What about the AUC(0-t) [6] of the same compound?
The AUC(0-t) was 166 ng·h/mL.

And the AUC(0-t) [7]?
Its AUC(0-t) is 745 ng·h/mL.

What about the bioavailability [8] of the same compound?
The bioavailability was 44.8%.

Which IC50 [10] does the source give for `C[C@@H](Oc1cc(-c2cnn(C3CCNCC3)c2)cnc1N)c1c(Cl)ccc(F)c1Cl` [CRIZOTINIB] here?
Its IC50 is 2500 nM.

What about the IC50 [11] of the same compound?
Its IC50 is 10000 nM.
